Tests used:
[1] = test system: stimulated human neutrophils; experiment: FIB One cleavage in supernatant from stimulated neutrophils; type: cell-based; settings: coincubation with marimastat, FIB One 1 μM, 10 min
Description: Neutrophils were isolated from the blood of healthy human volunteers as previously described. The number of retrieved neutrophils was determined with NucleoCounter NC-1000 (Chemo Metec). Neutrophils were resuspended at a concentration of 20×10^6 mL^-1 in 0.9% NaCl with 0.9 mM CaCl2. Cells were incubated for 30 min at 37°C. Cells to be stimulated were subsequently activated with 5 μM calcium ionophore A23187 (Tocris Bioscience) for 30 min at 37°C. Neutrophils were harvested by centrifugation at 400 x g for 5 min. Supernatants were removed and stored. Plate reader assays were performed as described above, with the MMP buffer replaced with neutrophil supernatant. All experiments were carried out in duplicate using three independent donors (one donor per independent repeat). Data were normalised by background subtraction of intrinsic fluorescence.

[2] = molecular target: T1, MMP-9 (Homo sapiens, UniProt P14780); experiment: In vitro enzymatic validation of FIB One with recombinant MMP-9 (plate reader); type: biochemical; settings: marimastat 20 μM, enzyme pre-incubated 30 min at 37°C, FIB One 1 μM, MMP 30 nM
T1 construct: recombinant MMPs (Enzo Life Sciences) (active domains of MMP-1, MMP-2, MMP-3, MMP-7, MMP-8, MMP-9, MMP-10, MMP-11, MMP-12, and MMP-13); purchased Enzo Life Sciences
Description: (§1) To determine the enzymatic specificity of FIB One, the probe was incubated at a concentration of 1 μM (unless otherwise stated) with the recombinant MMPs (Enzo Life Sciences) (active domains of MMP-1, MMP-2, MMP-3, MMP-7, MMP-8, MMP-9, MMP-10, MMP-11, MMP-12, and MMP-13, all at 30 nM), thrombin (Sigma Aldrich) (5 U/mL), factor Xa (Sigma Aldrich) (500 nM), plasmin (Sigma Aldrich) (30 nM), and human neutrophil elastase (30 nM). Where appropriate, enzymes were incubated with specific inhibitors for 30 min at 37°C prior to addition of FIB One. […] Enzyme free reactions served as a control. Enzymatic reactions were performed in MMP buffer (10 mM CaCl2, 6.1 g Tris-HCl, 8.6 g NaCl per litre, pH 7.5) in a final volume of 20 μL. Reactions were performed in duplicate in 384-well plates (Life Technologies) with optically clear plate seals (Thermo Scientific) and repeated thrice (independently). Fluorescence signal was measured for up to 60 min, ex/em 485/528 nm using microplate reader (BioTek Synergy H1 multimode reader). Data were normalised to buffer alone and are presented as fold-change in signal (relative fluorescent units, RFU) compared to enzyme-free controls. Data were plotted using Prism 7 (GraphPad Software Inc., La Jolla, CA, USA).

[3] = molecular target: T2, MMP-2 (Homo sapiens, UniProt P08253); experiment: In vitro enzymatic validation of FIB One with recombinant MMP-2 (plate reader); type: biochemical; settings: marimastat 20 μM, enzyme pre-incubated 30 min at 37°C, FIB One 1 μM, MMP 30 nM
T2 construct: recombinant MMPs (Enzo Life Sciences) (active domains of MMP-1, MMP-2, MMP-3, MMP-7, MMP-8, MMP-9, MMP-10, MMP-11, MMP-12, and MMP-13); purchased Enzo Life Sciences
Description: as §1

[4] = test system: MMP activity in ex vivo ventilated ovine lung; experiment: Ex vivo ovine lung model instilled with OPA supernatant, FCFM imaging; settings: marimastat 100 μM with OPA supernatant, 5 μM FIB One
Description: Ovine pulmonary adenocarcinoma (OPA) tissue was homogenised using a drill homogeniser, followed by lysis in cell lysis buffer. The supernatant was collected following centrifugation at 12,000 rpm for 20 min. The samples were adjusted to 1 mg mL^-1 total protein (determined by a Pierce BCA Total Protein Assay Kit (Thermo Fisher Scientific)). Zymography (as described above) was performed to confirm MMP activity across multiple OPA samples. Recombinant MMP-9 (2 nM) and recombinant pro-MMP-9 (0.5 nM) were included in the assay as positive controls. […] Following >30 min, the segments were bronchoscopically identified and microdosed with 5 μM FIB One in 1 mL. FCFM imaging was undertaken pre- and postinstillation (Cellvizio®, Mauna Kea Technologies). This was performed by passing a FCFM fibre into the disparate bronchopulmonary segments (up to 5 passes per bronchopulmonary segment to capture a regional representation of fluorescence), recording images at 12 frames per second and imaging for up to 5 minutes. Videos were analysed as described above. Each experimental set was normalised to the control segment (segment with 1 mL 0.9% NaCl instilled) which represents intrinsic autofluorescence.

[5] = test system: primary human lung tissue; experiment: Ex vivo fibre-based (FCFM) imaging of human lung tissue with FIB One; settings: marimastat 100 μM, FIB One 1 μM, 10 min, n=9, P=0.0215
Description: Human lung tissue samples (lung tumour and noncancerous adjacent tissue) were obtained following surgical resection and stored at -80° C until use. Processing for multiwell plate reader assay or zymography analysis was conducted as follows: 1 mm×4 mm sections were homogenised in 400 μL MMP buffer in Precellys 2.8 mm ceramic bead tubes (VWR) using a Pecellys 24 homogeniser. Homogenised tissue was adjusted to 4 mg mL^-1 protein (determined by a Pierce BCA Total Protein Assay Kit (Thermo Fisher Scientific), following the manufacturer’s instructions). Multiwell plate reader assays were performed as previously described, replacing the MMP buffer and MMP enzymes for the homogenised and protein-adjusted lung tissue.
For ex vivo imaging, human lung tissue was sliced into 1 mm×4 mm sections and placed in the wells of a 96-well plate with 100 μL of MMP buffer and 30 nM MMP-13. […] The fluorescence for each sample was calculated by determining the average fluorescence per frame for each time point. […] Five independent patient specimens were collected and analysed. RFUs collected from off-target frames (showing motion artefact or absence of any fluorescence) were omitted during analysis.

[6] = supernatant from stimulated (5 μM calcium ionophore A23187) neutrophils; settings: human, up to 10 minutes

T1 sequence (P14780 107-444 limits assumed): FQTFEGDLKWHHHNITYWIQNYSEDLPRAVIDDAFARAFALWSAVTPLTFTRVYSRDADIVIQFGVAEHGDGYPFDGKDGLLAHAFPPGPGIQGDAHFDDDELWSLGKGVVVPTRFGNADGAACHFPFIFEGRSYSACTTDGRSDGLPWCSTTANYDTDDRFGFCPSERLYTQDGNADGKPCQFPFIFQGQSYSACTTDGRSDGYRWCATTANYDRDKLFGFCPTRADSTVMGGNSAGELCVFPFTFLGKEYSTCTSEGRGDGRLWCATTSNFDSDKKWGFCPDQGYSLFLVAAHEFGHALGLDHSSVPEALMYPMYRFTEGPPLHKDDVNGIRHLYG
T2 sequence (P08253 110-446 limits assumed): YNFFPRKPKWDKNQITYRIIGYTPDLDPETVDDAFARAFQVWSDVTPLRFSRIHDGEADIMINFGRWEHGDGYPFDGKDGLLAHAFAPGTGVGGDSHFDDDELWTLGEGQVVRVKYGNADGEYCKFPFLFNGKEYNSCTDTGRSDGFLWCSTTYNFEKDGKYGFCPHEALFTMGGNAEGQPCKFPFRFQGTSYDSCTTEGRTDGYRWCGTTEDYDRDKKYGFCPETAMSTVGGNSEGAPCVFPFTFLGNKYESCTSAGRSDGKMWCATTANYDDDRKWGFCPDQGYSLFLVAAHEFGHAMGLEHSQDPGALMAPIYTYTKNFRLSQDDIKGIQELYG

Row | fragment found [6] | Molecule | inhibition of FIB One cleavage [1] | inhibition of FIB One activation [2] | inhibition of FIB One activation [3] | FIB One signal in inhibitor-dosed segments [4] | inhibition of FIB One cleavage [5]
1 | – | CNC(=O)[C@@H](NC(=O)[C@H](CC(C)C)[C@H](O)C(=O)NO)C(C)(C)C [marimastat, reference compound] | cleavage inhibition observed | blocked | blocked | did not show an increase in FIB One signal | cleavage inhibition observed
2 | peak at 823 Da, 10 min | FAM-PEG2-Pro-Phe-Gly-Nle-Lys-βAla-Lys(MethylRed)-PEG2-(D)Lys-PEG2-(D)Lys | – | – | – | – | –
